Experimental data as given in publication PMC5581131, “The novel sphingosine-1-phosphate receptors antagonist AD2900 affects lymphocyte activation and inhibits T-cell entry into the lymph nodes” (Oncotarget, 2017).

Assays:
[1] = design: method as in unpublished data; conditions: previous studies; ref unpublished data; cited from earlier work
[2] = test system: C57BL/6 mice; assay: T, B and NK cell populations in blood, spleen and lymph nodes, FACS; type: in vivo, mouse
From the text: S1P receptors are differentially expressed by distinct immune cell populations. Since AD2900 is an antagonist to all S1P receptors, we next evaluated its influence on the localization of different murine lymphocyte populations. To achieve this aim, we performed FACS analysis of the blood (Figure 5A), spleen (Figure 5B), and lymph node cells (Figure 5C) using antibodies against surface markers of T cells, B cells, and NK cells (TCR-β, CD19, and CD49b, respectively). […] The NK cell count was elevated by 55.7% (4.741 ± 0.8621 × 10^6 cells/ml) after a 7-day treatment with AD2900. […] The trend in the B-cell change was opposite to that in the T- and NK cell changes in the lymph nodes.
Figure 5 AD2900 treatment affects the distribution of T cells, B cells, and NK cells in blood, spleen, and peripheral lymph nodes C57BL/6 mice were orally administered with AD2900 or FTY720, as shown in Figure 4. Leukocytes from blood, spleen, and pLNs were collected and stained with TCR-β, CD19, and CD49b fluorescent antibodies and then analyzed by FACS analysis. The percentages of TCR-β+ T cells (left panel), CD19+ B cells (central panel), and CD49b+ NK cells (right panel) of the total leukocytes from blood (A), spleen (B), and pLNs (C) are shown. The results of T and B cells are from 2 days’ experiments. The results of NK cells are from 2 and 7 days’ experiments. All the significances are compared to untreated healthy mice. Results summarize three independent experiments. Results of Student’s t-test:*(P < 0.05, two-tailed test), ** (P < 0.01, two-tailed test), *** (P < 0.001, two-tailed test), **** (P < 0.0001, two-tailed test).
Murine lymphocytes: The phenotype of murine lymphocytes was analyzed by flow cytometry using anti-CD3e-FITC, anti-CD19-PB, anti-CCR7-APC, anti-CD44-FITC, anti-CD62L-APC, and anti-TCR-β-PB (Biolegend, CA, USA).
To eliminate the red blood cells, RBC lysis buffer (Beit Haemek, Israel) or BD FACS lysing solution (BD Biosciences, CA, USA) was added into murine blood and splenocyte samples. Flow cytometry was performed using the MACSQuant® Analyzer (Miltenyi Biotech, Germany), and the data were analyzed using FCS Express V3 software.
C57BL/6 female mice aged 7–8 weeks were obtained from Harlan Laboratories (Jerusalem, Israel). The animal study was conducted under appropriate conditions and was approved by the Institutional Animal Care and Use Committee of the Hebrew University of Jerusalem in accordance with the national laws and regulations for the protection of animals. AD2900 was dissolved in 10% BSA (MP Biomedicals, CA, USA) in DDW at 1 mg/ml and then further diluted in 200 ml water to get final concentrations at 1.8, 2.7, or 3.6 mg/l. AD2900 and FTY720 were supplied ad libitum to the mice for 2 days or 7 days. At the end of the experiment, blood was collected, and the mice were sacrificed and tissues (lymph nodes and spleen) were harvested.

[3] = test system: TNF-α; assay: TNF-α secretion from activated PBMCs, ELISA; type: cell-based, human; conditions: 1-day pretreatment, 5th day of MLR
Procedure: To better characterize the effect of AD2900 on activated PBMCs, the influence of AD2900 on apoptosis and cytokine secretion was tested. After 5 days of MLR, the cells were collected for apoptosis evaluation, while the supernatant was collected for ELISA test. Apoptosis was induced on the activated PBMCs only at higher concentrations of AD2900, above 10 μM (Figure 1C). Therefore, only a small part of the effect of AD2900 on the suppression of lymphocytic proliferation might be attributed to apoptosis. AD2900-induced inhibition of proliferation was accompanied by a reduced level of IFN-γ concentrations in the supernatant (Figure 1D).
Human PBLs were collected from human whole blood collected from healthy donors. Subsequently, the cells were centrifuged on a Ficoll-Paque gradient (Fresenius Kabi Norge AS, Oslo, Norway) and were isolated from the interphase layer. For the human MLR experiment, PBMCs from one healthy donor were pretreated for 1 day with AD2900, AD2730, AD2750, YZ297, YZ158, FTY720, or SEW2871. […] For the thymidine incorporation assay, after 4 days of co-culture, cells were pulsed with ^3H-thymidine at 1 μCi (0.037MBq) per well (PerkinElmer, MA, USA) for 16 additional hours and then harvested onto glass-fiber filters. ^3H-thymidine incorporation was measured using Top Count. […]

CCCCCCCCCCCCCCCCNC(CO)(CO)CO [AD2900]
lethal dose 50% (LD50) [1]: above 100 mg/kg | T cells in the blood, value in parentheses ([2]; 1.8 mg/l, 2-day treatment): 0.7488 ± 0.1641 × 10^6 cells/ml | increase of average count of T cells in the blood ([2]; 1.8 mg/l, 2-day treatment): 81.9% | T cells in the lymph nodes, value in parentheses ([2]; 2-day treatment): 0.7411 ± 0.2217 × 10^5 cells/ml | T cells in the spleen, value in parentheses ([2]; 2-day treatment): 11.79 ± 3.64 × 10^6 cells/ml | decrease of T-cell average count in the lymph nodes ([2]; 2-day treatment): 30% | increase of average count of T cells in the spleen ([2]; 2-day treatment): 96.7% | NK cells in the blood, value in parentheses ([2]; 7-day treatment): 0.3987 ± 0.0706 × 10^6 cells/ml | NK cells in the lymph nodes, value in parentheses ([2]; 7-day treatment): 0.07852 ± 0.03572 × 10^5 cells/ml | NK cells in the spleen, value in parentheses ([2]; 7-day treatment): 4.741 ± 0.8621 × 10^6 cells/ml | decrease of NK cell count in the lymph nodes ([2]; 7-day treatment): 20.8% | elevation of NK cell count in the spleen ([2]; 7-day treatment): 55.7% | increase of average NK cell count in the blood ([2]; 7-day treatment): 52.1% | B cell count in all the organs ([2]; blood, spleen, lymph nodes): not significantly influenced | TNF-α concentration in the culture media [3]: not influenced
